Experimental data published in PubChem BioAssay AID2060600 (Molecular Pharmacology Branch, DTP, NCI, 2025).
pIC50: −log10 of the molar value.

Tested on: 996289-038-R-J1-PDC complex spheroid viability
Assay: Anticancer human tumor 996289-038-R-J1-PDC patient-derived colon adenocarcinoma cell line growth inhibition [CLK]
Details: for pIC50: curve of first compound; for viability, T/C: stronger effect = lower value
Description: A high-throughput screen of multi-cell type tumor spheroids was designed to identify active combinations of […] and targeted small molecules. Complex spheroids include a stromal component modeled by human endothelial cells (HUVEC) and fibroblasts modeled by human mesenchymal stem cells (MSCs). The concentration ranges selected for each drug and investigational agent were based upon clinically achievable concentrations if the clinical Cmax of the agent was known.
Compounds. The drugs and investigational agents: cirtuvivint (SM08502; NSC835563), CC-671 (NSC850746), vemurafenib (NSC761431), tapotoclax (NSC804041), sotorasib (NSC818433), adagrasib (NSC831453), MRTX-1133 (NSC836407), BAY2416964 (NSC825713), copanlisib (NSC816437), inavolisib (NSC800729), abemaciclib (NSC768073), osimertinib (NSC779217), entinostat (NSC756642), eltanexor (KPT-8602, NSC794443), venetoclax (NSC766270), ceralasertib (NSC777638), bortezomib (NSC756655), olaparib (NSC753686), talazoparib (NSC767125), alisertib (NSC759677), peposertib (NSC802822), gemcitabine (NSC613327), 5-fluorouracil (NSC19893), SN-38 (NSC673596), oxaliplatin (NSC266046), paclitaxel (NSC125973), and doxorubicin (NSC123127), were obtained from the National Cancer Institute (NCI) Developmental Therapeutics Program Chemical Repository. The FDA-approved anticancer drug set is available from the Developmental Therapeutics Program at https://dtp.cancer.gov/organization/dscb/obtaining/available plates.htm. […] The stock solutions were prepared in dimethyl sulfoxide (DMSO, Sigma-Aldrich, St. Louis, MO, cat. D2650), except for the platinum complexes which were prepared in saline (Quality Biological, Gaithersburg, MD, cat. 114-055-101), at 800-fold the tested concentration and stored at -70 degrees C prior to their use. All drugs and investigational agents were tested over a range starting from a high concentration at or near the clinical Cmax and decreasing in half-log increments. If the clinical Cmax for an agent had not been determined, the highest concentration tested was 10 microM.
Cell Culture. All cells were maintained in an incubator at 37 degrees C and 5% CO2 with 95% humidity. The PDC lines were cultured according to standard operating procedures established by the NCI PDMR. Briefly, all PDCs were thawed and cultured in Matrigel-coated flasks prepared with a working solution of 1X Ham's F-12 nutrient mix, without supplementation (Invitrogen, Waltham, MA, cat. 11765054), 100 U/mL penicillin-streptomycin (Invitrogen, cat. 15140122), and 2.5% Matrigel (Corning Inc., Corning, NY, cat. 354248) for the first three passages. The 947758-054-R-J2-PDC line was cultured in 6B/Colon 1A media, which includes advanced DMEM/F-12 (Thermo Fisher Scientific, cat. 12634028), 10 mM HEPES (Thermo Fisher Scientific, cat. 15630080), 1X GlutaMAX supplement (Thermo Fisher Scientific, cat. 35050061), 0.1 mg/mL primocin (InvivoGen, cat. ant-pm-2), 10% defined fetal bovine serum, heat inactivated (HyClone Laboratories Inc., cat. SH30070.03HI), 1.25 mM N-Acetyl-L-cysteine (Sigma-Aldrich, cat. A9165), 10 mM nicotinamide (Sigma-Aldrich, cat. N0636), 1X B-27 supplement (Thermo Fisher Scientific, cat. 17504044), 1X N-2 supplement (Thermo Fisher Scientific, cat. 17502048), and 10 microM Y-27632 dihydrochloride (Tocris Bioscience, cat. 1254). The 876862-298-R-J1-PDC was cultured in 6E media, which includes all 6B/Colon 1A media components plus 50% L-WRN conditioned media (ATCC, cat. CRL-3276), 50 ng/mL recombinant human EGF recombinant protein (hEGF; Thermo Fisher Scientific, cat. PHG0311), 10 ng/mL recombinant human fibroblast growth factor 10 (hGFG-10; PeproTech, cat. 100-26), 1 ng/mL recombinant human fibroblast growth factor 2 (hFGF-2; PeproTech, cat. 100-18B), and 1 µM prostaglandin E2 (PGE2; Tocris, cat. 2296). The 227483-062-R1-J1-PDC line was cultured in Panc media, containing all 6E components except hFGF-2, with the addition of 500 nM SB-431542 (Selleckchem, cat. S1067) and 10 nM gastrin (Tocris, cat. 3006). […]

[1] = second compound 0.0316 µM, first compound 0.0316 µM
[2] = second compound 0.0316 µM, first compound 0.1 µM
[3] = second compound 0.0316 µM, first compound 0.316 µM
[4] = second compound 0.0316 µM, first compound 1 µM
[5] = second compound 0.1 µM, first compound 0.0316 µM
[6] = second compound 0.1 µM, first compound 0.1 µM
[7] = second compound 0.1 µM, first compound 0.316 µM
[8] = second compound 0.1 µM, first compound 1 µM
[9] = second compound 0.316 µM, first compound 0.0316 µM
[10] = second compound 0.316 µM, first compound 0.1 µM
[11] = second compound 0.316 µM, first compound 0.316 µM
[12] = second compound 0.316 µM, first compound 1 µM
[13] = second compound 1 µM, first compound 0.0316 µM
[14] = second compound 1 µM, first compound 0.1 µM
[15] = second compound 1 µM, first compound 0.316 µM
[16] = second compound 1 µM, first compound 1 µM
[17] = second compound 3.16 µM, first compound 0.0316 µM
[18] = second compound 3.16 µM, first compound 0.1 µM
[19] = second compound 3.16 µM, first compound 0.316 µM
[20] = second compound 3.16 µM, first compound 1 µM
[21] = second compound 10 µM, first compound 0.0316 µM
[22] = second compound 10 µM, first compound 0.1 µM
[23] = second compound 10 µM, first compound 0.316 µM
[24] = second compound 10 µM, first compound 1 µM
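Note: spheroids exposed to the agents for 7 days before readout.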

Which results are given for `CCc1c2c(nc3ccc(O)cc13)-c1cc3c(c(=O)n1C2)COC(=O)[C@]3(O)CC` + CN1CCN(c2cc(C(=O)Nc3cc4cc(-c5cnn(C)c5)ccc4cn3)ccn2)CC1?
pIC50 (second compound 0.0316 µM): 6.90; pIC50 (second compound 0.1 µM): 7.23; pIC50 (second compound 0.316 µM): 7.78; pIC50 (second compound 1 µM): > 8.50; pIC50 (second compound 3.16 µM): > 8.50; pIC50 (second compound 10 µM): > 8.50; viability, T/C (second compound 0.0316 µM, first compound 0.00316 µM): 89.7%; viability, T/C (second compound 0.0316 µM, first compound 0.01 µM): 79.2%; viability, T/C [1]: 57.2%; viability, T/C [2]: 56.6%; viability, T/C [3]: 43%; viability, T/C [4]: 26.9%; viability, T/C (second compound 0.1 µM, first compound 0.00316 µM): 91%; viability, T/C (second compound 0.1 µM, first compound 0.01 µM): 70.7%; viability, T/C [5]: 55.6%; viability, T/C [6]: 44.8%; viability, T/C [7]: 33.8%; viability, T/C [8]: 19.5%; viability, T/C (second compound 0.316 µM, first compound 0.00316 µM): 57.9%; viability, T/C (second compound 0.316 µM, first compound 0.01 µM): 51.2%; viability, T/C [9]: 46.2%; viability, T/C [10]: 35%; viability, T/C [11]: 17.7%; viability, T/C [12]: 6.98%; viability, T/C (second compound 1 µM, first compound 0.00316 µM): 6.14%; viability, T/C (second compound 1 µM, first compound 0.01 µM): 5.27%; viability, T/C [13]: 2.85%; viability, T/C [14]: 1.7%; viability, T/C [15]: 3.66%; viability, T/C [16]: 5.38%; viability, T/C (second compound 3.16 µM, first compound 0.00316 µM): 1.13%; viability, T/C (second compound 3.16 µM, first compound 0.01 µM): 0.73%; viability, T/C [17]: 1.24%; viability, T/C [18]: 1.43%; viability, T/C [19]: 3.98%; viability, T/C [20]: 8.54%; viability, T/C (second compound 10 µM, first compound 0.00316 µM): 1.3%; viability, T/C (second compound 10 µM, first compound 0.01 µM): 2.51%; viability, T/C [21]: 0.56%; viability, T/C [22]: 0.63%; viability, T/C [23]: 0.8%; viability, T/C [24]: 3.96%

What does the source list for `O=c1[nH]cc(F)c(=O)[nH]1` + CNC(=O)c1ccc(Nc2nc(OC3CCCC3)c3c(-c4ccc5nc(C)oc5c4)c[nH]c3n2)c(OC)c1?
pIC50 (second compound 0.0316 µM): < 5.00; pIC50 (second compound 0.1 µM): < 5.00; pIC50 (second compound 0.316 µM): < 5.00; pIC50 (second compound 1 µM): 5.46; pIC50 (second compound 3.16 µM): 5.46; pIC50 (second compound 10 µM): 5.80; viability, T/C [1]: 108%; viability, T/C [2]: 111%; viability, T/C [3]: 87.5%; viability, T/C [4]: 86.6%; viability, T/C (second compound 0.0316 µM, first compound 3.16 µM): 86.1%; viability, T/C (second compound 0.0316 µM, first compound 10 µM): 77.8%; viability, T/C [5]: 122%; viability, T/C [6]: 105%; viability, T/C [7]: 86.1%; viability, T/C [8]: 82.1%; viability, T/C (second compound 0.1 µM, first compound 3.16 µM): 81.3%; viability, T/C (second compound 0.1 µM, first compound 10 µM): 74.5%; viability, T/C [9]: 80.8%; viability, T/C [10]: 77%; viability, T/C [11]: 72.5%; viability, T/C [12]: 69.6%; viability, T/C (second compound 0.316 µM, first compound 3.16 µM): 63.8%; viability, T/C (second compound 0.316 µM, first compound 10 µM): 59.1%; viability, T/C [13]: 62.9%; viability, T/C [14]: 61.2%; viability, T/C [15]: 59.5%; viability, T/C [16]: 53.6%; viability, T/C (second compound 1 µM, first compound 3.16 µM): 50.3%; viability, T/C (second compound 1 µM, first compound 10 µM): 45.5%; viability, T/C [17]: 61.9%; viability, T/C [18]: 60%; viability, T/C [19]: 55.8%; viability, T/C [20]: 51%; viability, T/C (second compound 3.16 µM, first compound 3.16 µM): 53.3%; viability, T/C (second compound 3.16 µM, first compound 10 µM): 46.1%; viability, T/C [21]: 60.4%; viability, T/C [22]: 53.9%; viability, T/C [23]: 59.2%; viability, T/C [24]: 48%; viability, T/C (second compound 10 µM, first compound 3.16 µM): 47.5%; viability, T/C (second compound 10 µM, first compound 10 µM): 46.7%
